From patent US20120042398A1, “COMPOSITIONS FOR LABELING AND IDENTIFYING AUTOPHAGOSOMES AND METHODS FOR MAKING AND USING THEM” (SAN DIEGO STATE UNIVERSITY (SDSU) FOUNDATION, priority 2008, published 2012)

Legend:
[1] = test system: autophagic vesicles (AV) in fat body tissue; assay: Staining of fresh Drosophila larval fat body tissue (AV labeling); format: cell-based; conditions: 10 μM dye, 10 min
Protocol: Staining of Drosophila Tissues. To perform a rapid first-pass examination of the compounds ability to stain AV we examined fat body tissues from wandering 3rd instar Drosophila larvae. 1 mM DMSO stock solutions were prepared for each compound and stored at −20° C. Fat body tissue from wild type fly larvae were dissected from the surrounding cuticle and organs, and placed in 1 ml iced PBS solution. Tissues were immediately stained for 10 min, in a final 10 μM concentration for each dye. Samples were rinsed twice with 1×PBS, mounted with VECTASHIELD™ (Vector Laboratories, Inc, Burlingame, Calif.) and immediately imaged using a scanning confocal fluorescent microscope (Leica, FITC channel). As a positive control, fly tissues (3rd instar) were also stained with BODIPY-TexasRed-cadaverine (Invitrogen, red).

HL-1 cells = assay: High-throughput cadaverine plate-reader assay of autophagy (ALEXAFLUOR488-cadaverine fluorescence); format: cell-based, Mouse; conditions: FIG. 1
Protocol: For 24 Well Plates: • Plate 75,000 cells per well • Wait for cells to achieve approximately 80% confluence (approximately 1 day) • Treat cells (3 h 30 min starvation, 3 mL of medium) • Rinse cells with PBS (1 ml) • Incubate cells with probe for 10 minutes at 37° C. • Wash cells four times with PBS (1 mL) • Lyse cells by incubating in 10 mM Tris-Cl pH 8 containing 0.1% Triton X-100 for 20 minutes (500 uL) • Measure fluorescence in plate reader • Add ethidium bromide to a final concentration of 0.2 mM and measure fluorescence (exc=530 nm; em=590 nm) • Normalize results to the number of cells (ethidium bromide reading)
Probes: • ALEXAFLUOR488™ cadaverine (A30676, Invitrogen, Carlsbad, Calif.) • Final concentration 25 uM, exc=493 nm; em=516 nm. • BODIPY TR™ cadaverine (D6251, Invitrogen, Carlsbad, Calif.) • Final concentration 125 nM, exc=588 nm; em=616 nm.

[2] = test system: autophagic vesicles in Atg1-/- fat body tissue; assay: FITC-TG / LYSOTRACKER staining of Atg1-/- mutant fat body tissue; format: cell-based, Drosophila; conditions: starvation and hormone-dependent induction
Protocol: These studies indicates the FITC-dyes highlight a population of vesicles that are distinct from LYSOTRACKER™ and could be used to study the early in vivo formation, maturation and fusion events of AV within cells. To further confirm the specificity of the FITC-TG AV staining, fat body tissue was prepared from Atg1−/− larvae and compared with wild type controls. Signaling of the Atg1 protein kinase is essential for pathway induction and AV formation, see e.g., (21, 57). In Drosophila loss-of-function mutations in this gene result in late pupal lethality but have a minor impairment on early development, thus providing sufficient material for imaging studies. […] This staining pattern is consistent with lysosomes maturing from the endosomal pathway but AV failing to be formed under normal physiological conditions. FIG. 8 illustrates images of stained tissues from: Fed (left column images), fasted (middle column images) and hormone-induced (“3rd instar” right column images) autophagy profiles in wildtype (upper row images) and Atg1−/− mutant (lower row images) cells. Fat body tissue from larvae that were fed, fasted or undergoing hormone-induced autophagy were collected and stained with LYSOTRACKER™ (red) and the exemplary FITC-TG (green). […] While LYSOTRACKER™ puncta are detected (red) in these Atg1^−/− mutant tissues, the exemplary FITC-TG dye fails to stain autophagosomes or autolysosomes.

[3] = test system: autophagosomes in heart tissue; assay: Heart perfusion with BODIPY-TR-cadaverine, dye incorporation into autophagosomes read in plate reader; conditions: perfused hearts, FIG. 2
Protocol: 1) Mince 1-5 mm^3 tissue sample in 1-2 mL homogenization buffer in 35 mm dish 2) Polytron at ½ speed, 5 sec, on ice in 15 mL round bottom polypropylene tube 3) Spin out nuclei and heavy membranes @ 1000 g, 5 min, 4° C. in 15 mL Falcon tube 4) Move post-nuclear supernatant into 1.5 mL Eppendorf tube 5) Add MDC (or Cadaverine 488) to final concentration of 25 μM 6) Incubate on ice 10 min protected from light 7) Spin sample 20,000×g, 20 min, 4° C. 8) Aspirate supernatant and rinse off pellet with 1 mL cold resuspension buffer 2×'s 9) Resuspend pellet in 350 μL resuspension buffer until mixed evenly 10) Add 100 μL per well in triplicate to black 96-well plate 11) Read on Fluorescence plate reader @ excitation/emission 495 nm/519 nm 12) Use remaining sample to run Bradford assay to quantify protein concentration.
The hearts were perfused with BODIPY-TR™-cadaverine followed by washout, then homogenized and fluorescence read in plate reader. […] FIG. 2 right image is a graph illustrating quantitation of dye incorporation into autophagosomes, with the left column graphically quantitating the upper left image's fluorescence and the right column graphically quantitating the lower left image's (the Tat-Atg5(K130R)-inhibited) fluorescence.

[4] = cited from earlier work
[5] = Fluorophore properties (pKa, pH stability, photostability, storage stability); format: physicochemical; conditions: for photostability / photobleaching: normal fluorescence exposure
[6] = test system: mCherry-LC3 puncta (autophagosomes) in heart; assay: MDC labeling of cardiac tissue in mCherry-LC3 mice; format: in vivo; conditions: MDC 1.5 mg/kg i.p. 1 hr before sacrifice, heart sections
Protocol: To examine its labeling profile in cardiac tissues, mCherry-LC3 mice were injected with MDC (1.5 mg/kg i.p.) 1 hr before being sacrificed, e.g., see Iwai-Kanai (2008) supra, Yitzhaki (2009) Basic Res. Cardiol. 104:157-167. Hearts were collected and frozen tissues sections prepared for imaging. Under conditions where autophagy is activated and mCherry-LC3 puncta formed, MDC-labeled structures were similarly up regulated, see FIG. 4, and see e.g. Iwai-Kanai (2008) supra. MDC labeled a subset of mCherry-LC3-positive structures, presumably fused autolysosome vesicles.
FIG. 4 illustrates three images, including mCherry and MDC labeling of vesicles. mCherry-LC3 expressing mice were treated with rapamycin and hearts prepared for fluorescent imaging. […] The right image of FIG. 4 is a merge of the mCherry-LC3 and MDC images.

autophagic vesicles (AV) = assay: MDC staining of AV in cell or tissue preparations; format: cell-based
Text: Initial synthesis of autophagic specific dyes of this invention was based on MDC. […] In alternative embodiments, dyes used in compositions of this invention are vesicle selective, have multiple fluorescent excitation/emission spectra and can be used for several imaging applications. Thus, the new dyes of this invention will greatly benefit autophagy research.

Cl.NCCCCCNC(=O)COc1ccc(C2=[N+]3C(=Cc4ccc(-c5cccs5)n4[B-]3(F)F)C=C2)cc1 [BODIPY-cadaverine, 5-(((4-(4,4-difluoro-5-(2-thienyl)-4-bora-3a,4a-diaza-s-indacene-3-yl)phenoxy)acetyl)amino)pentylamine, hydrochloride]
staining of intracellular vesicles / cytoplasmic puncta in fresh tissue [1]: robust staining pattern

CO/C1=C\C(C)=C\[C@@H](C)[C@@H](O)[C@@H](C)C/C(C)=C/C=C/[C@H](OC)[C@@H]([C@@H](C)[C@@H](O)[C@H](C)[C@@]2(O)C[C@@H](O)[C@H](C)[C@@H](C(C)C)O2)OC1=O [Bafilomycin A1]
effect on starvation-increased autophagy (relative ALEXAFLUOR488-cadaverine fluorescence normalized to cell number) (HL-1 cells): partially blocked

CN(C)CCNC(=O)CCc1ccc2n1[B-](F)(F)[N+]1=C(c3ccc[nH]3)C=CC1=C2 [LYSOTRACKER™]
vesicle staining in Atg1-/- flies [2]: some LYSOTRACKER™ positive staining

CCN(CC)CCCC(C)Nc1ccnc2cc(Cl)ccc12 (centres unmarked) [chloroquine]
effect on starvation-increased autophagy (relative ALEXAFLUOR488-cadaverine fluorescence normalized to cell number) (HL-1 cells): partially blocked

Nc1ccc(S(=O)(=O)Nc2ccnn2-c2ccccc2)cc1 [Sulfaphenazole]
effect on autophagy (BODIPY-TR-cadaverine incorporation into autophagosomes) [3]: potent inducer of autophagy

O=C1OC2(c3cc(F)c(O)cc3Oc3cc(O)c(F)cc32)c2ccccc21 [Oregon Green 488, Difluoro-fluorescein]
pKa [4]: 4.7
photostability / photobleaching [5]: excellent photostability

CN(C)c1cccc2c(S(=O)(=O)NCCCCCN)cccc12 [MDC, monodansylcadaverine]
co-localization of MDC labeling with mCherry-LC3 puncta [6]: excellent co-localization
stability during storage [5]: stability issues during storage
photostability / photobleaching [5]: significant photobleaching
usability on fixed samples (autophagic vesicles (AV)): cannot be used on fixed samples
